According to patent publication US9884012B2, “Use of PEDF-derived polypeptides for promoting muscle or tendon regeneration or arteriogenesis” (MacKay Memorial Hospital, priority 2012, dated 2018):

Columns and labels:
aortic ring explants = experiment: rat aortic ring sprouting assay (ex vivo neovessel sprouting); type: cell-based; settings: aortic rings cultured with PEDF peptide, in words
[1] = tested on: bone marrow-derived mesenchymal stem cells (BM-MSCs); experiment: BM-MSC differentiation into tenocytes, tenomodulin (TNMD) gene expression by RT-PCR; type: cell-based, Sprague-Dawley rats; settings: 50 nM peptide, 1% FBS-DMEM, 24 or 48 hours, in words
Experimental: Primary rat BM-MSCs were isolated from femur of male Sprague-Dawley rats (300-450 g). Femora were aseptically removed and dissected free of adhering tissues, and then the marrow cavities were flushed by injection of DMEM medium. Collected bone marrow cells were incubated in a 100×15-mm Petri dish in DMEM medium supplemented with 10% FBS, 100 U/ml penicillin, and 100 μg/ml streptomycin for 2 weeks in 5% CO2 at 37° C. The medium was replaced every 2 to 3 days. For passage, near-confluent cells were detached by 0.25% trypsin and then 2×10^5 subcultured cells were seeded in a well of 6-well plate and further cultured in the 10% FBS-DMEM. Before treatment, cells were starved for 12 hours in DMEM supplemented with 1% FBS followed by treatment with 50 nM PEDF-derived peptide (29-mer or 20-mer) in fresh 1% FBS-DMEM for either 24 or 48 hours.
The total RNA was extracted from cells using TRIzol and treated with RNase-free DNase I (Qiagen, Santa Clarita, Calif.) to remove genomic DNA and then purified with an RNA purification kit (Dynabeads). […]
The PCR products were electrophoresed in a 2% agarose gel containing ethidium bromide and visualized by UV illumination. The intensities of the PCR products were quantified densitometrically using a FUJI LAS-3000 system and Multi Gauge Ver. […]

Row | Sequence | neovessel phenotype by dual immunofluorescence (α-SMA / isolectin B4) (aortic ring explants) | tenocyte differentiation of BM-MSCs (TNMD gene expression) [1]
1 | SLGAEQRTESIIHRALYYDL [20-mer, synthetic peptide corresponding to residues 93-112 of human PEDF] | displayed arteriole phenotype with a SMC coating | effective inducer of tenocyte-like cell differentiation
2 | SLGAEQRTESIIHRALYYDLISSPDIHGT [29-mer, synthetic peptide corresponding to residues 93-121 of human PEDF] | displayed arteriole phenotype with a SMC coating | effective inducer of tenocyte-like cell differentiation
